Assay results from a melting point compilation (Tetko et al.; mined from patent text by program, amines drawn as free bases though some values may be those of a salt).

melting point [°C]	Compound
114 to 116	Cc1ccc(S(=O)(=O)OCC2COc3ccc4[nH]c(C(F)(F)F)nc4c3O2)cc1 (stereo not given)
210 to 213	COc1ccc(C(=O)Nc2c(Cl)cncc2Cl)c2c3cc(Cl)ccc3n(Cc3ccccc3)c12
97 to 105	CN(CCc1ccc(O)cc1)[C@H]1CC[C@H](c2ccccc2)CC1
216	NC(=O)c1ccc(N2CCN(CCC3=CCCc4ccccc43)CC2)cc1
216 to 219	COCCc1ccc(-c2ccc3c(c2)C=C(C(=O)Nc2ccc(CN(C)C4CCOCC4)cc2)CCS3(=O)=O)cc1
87 to 90	COCCOc1cc2ncc(C#N)c(NC3CCCC3)c2cc1OC
144 to 146	Nc1cnccc1-c1ccc(Cl)cc1
272 to 274	COCc1nc2cccc(C(=O)O)c2n1Cc1ccc(-c2ccccc2-c2nnn[nH]2)cc1
191 to 192	COC(=O)c1cnn(-c2cccc(Cl)c2)c1C(N)=O
135 to 137	O=C(NCc1ccccn1)Nc1cc(N2CC(COc3ccccc3)CC2=O)ccn1 (stereo not given)
101 to 102	COc1ccccc1CN1Cc2cc(OC)c(OCc3ccccc3)cc2C(OC)C1 (stereo not given)
134 to 136	O=C(NC1CC1)c1ccc(-c2ccc(C(CC3CCOCC3)c3ccc(S(=O)(=O)C4CC4)cc3)[nH]2)nc1 (stereo not given)
160	O=c1[nH]c2ccccc2n1Cc1cccnc1
121 to 122	Cc1cc(COc2nn(Cc3ccccc3)cc2C=O)ccc1OCc1nc(-c2ccco2)oc1C
178 to 182	O=C(O)CSCc1cccc(NC(=O)c2cc(-c3ccccc3)oc2C(F)(F)F)c1
196 to 199	COc1cc(C(N)=S)c2c(c1OC)C(=O)CC2
82 to 83	O=C1NCC(CCc2ccccc2)O1 (stereo not given)
166 to 167	COCCCNC(=O)c1cc(C(=O)OC)c(O)c2ncc(Cc3ccc(F)cc3)cc12
41 to 43	COc1ccc(SCC(=O)c2ccccc2)cc1C
150	CC(C)n1c(=O)[nH]oc1=O
156 to 158	COCc1cnc2c(NC(=O)c3c(Cl)cccc3Cl)cc(C)cc2c1Cl
76	Clc1nc2c(c(N3CCCC3)n1)SCCC2
149 to 151	COc1ccc2cc(C(C)C(=O)O)ccc2c1Br (stereo not given)
152 to 153	Cc1cc(=O)oc2c1c(C)nn2CCO

melting point [°C]	Compound
152 to 154	CN(C)C(=S)SC(c1ccc(Cl)cc1Cl)C(C(c1ccc(Cl)cc1Cl)N(C)C)[N+](=O)[O-] (stereo not given)
138 to 139	CC1(C)OC(=O)Nc2ccc(OCCCCS(=O)c3ccc(Cl)c(Cl)c3)cc21 (stereo not given)
248 to 250	Cc1cc(C)c(C2C(=O)N3CCOCCN3C2=O)c(C)c1
156 to 157	CSc1c(O[C@@H]2CCC[C@H](N3C(=O)c4ccccc4C3=O)C2)ccc2[nH]ncc12 (relative stereo)
180	CCCCc1cn(Cc2ccc(-c3ccccc3C(=O)O)cc2)c2c(Br)cccc2c1=O
82 to 86	CC(=O)O[C@H]1CC[C@H](CCCCCC(=O)O)CC1
139 to 140	COC(=O)Cc1sc(S)nc1C
192 to 193	CC(C)n1c(=O)[nH]c2cc(-c3ncc(C(F)(F)F)cc3Cl)ccc21
252 to 253	CN1CCN(c2cc3c(cc2F)c(=O)c(C(=O)O)cn3NCC=O)CC1
157 to 158	COC(=O)c1ccc(COc2ccc(-c3cc(O)c(SCCc4ccccc4)c(=O)o3)cc2)cc1
199 to 201	CCCCNS(=O)(=O)c1cc(C(=O)O)cc([N+](=O)[O-])c1Cl
190	O=C(Nc1cccc2c1C(=O)c1c-2n[nH]c1-c1ccc(N2CCNCC2)cc1)NN1CCC[C@@H]1CO
235 to 237	COc1ccc(-n2cc(C(=O)O)cn2)cc1
105 to 106	Cc1ccc(C(=O)N2CCN(CCc3ccc(Cl)cc3)CC2)cc1
184 to 188	CC(=O)NC[C@H]1CN(c2cc(F)c(N3CCC(n4nnc(N5CCN(C)CC5)n4)CC3)c(F)c2)C(=O)O1
171 to 173	CC(=O)NC1=NN(c2ccc(Cl)cc2)CC1
105 to 106	CCN(CC)c1cccc(OCCOS(N)(=O)=O)c1
128 to 130	Cc1ccccc1C(=O)Nc1ccc(-n2nc(C3CC3)cc2C2CC2)cc1
191 to 193	Cc1cc2c(cc1F)c(C#N)c(-c1ccc(S(=O)(=O)N[C@H](C)C(F)(F)F)cn1)n2C1CCCC1
39.7 to 40.1	CCCCCCCOc1ccc(C(=O)CCC(=O)OCC)cc1
77	c1ccc(-c2cnc3ccccc3n2)cc1
67 to 69	CC(C)NC(=O)C(C)CN(C)C (stereo not given)
98 to 102	Cc1ccc2cccc(OCc3c(Cl)ccc(S(=O)(=O)N(C)CCCCCC(=O)O)c3Cl)c2n1
231	CCCn1c(=O)c2c(nc(/C=C/c3ccc(OC(=O)c4ccccc4)c(OC(=O)c4ccccc4)c3)n2C)n(CCC)c1=O

melting point [°C]	Compound
112 to 114	Cc1cn(C(C)C(=O)N(C)c2ccccc2)nc1-c1ccccc1 (stereo not given)
190 to 195	O=C(O)Cc1c(C(=O)O)c2cc(Oc3cccc(Cl)c3)ccc2n1-c1ccc(OC(F)(F)F)cc1
150 to 152	COCCOc1ccnc2c(NC(=O)c3c(Cl)cccc3Cl)cccc12
> 270	Fc1ccc(-c2nc(S)nc(-c3ccccn3)n2)cc1
233 to 236	COc1cccc(N2C(=O)C3(CCCCO3)C(=O)c3cccnc32)c1 (stereo not given)
179 to 180	CCCCCNC(=O)c1cn2nc(N3CCN(C(=O)c4ccccc4C(F)(F)F)CC3)ccc2n1
123 to 124	c1ccc(-c2ccc3oc(COc4ccc(CCCn5ccnc5)cc4)nc3c2)cc1
234 to 236	Cc1ccccc1C=C1CCn2c1nc1ccc(C#N)cc1c2=O
83	COc1ccc2cccc(CC#N)c2c1
153 to 155	CC(C)c1cccc(C(C)C)c1NC(=O)N(Cc1ccccc1)CC(c1ccccc1)c1ccccc1
134	COc1ccc(S(=O)(=O)N2CCCC2c2ccc(F)cc2)cc1 (racemic)
236 to 238	O=C(O)c1ccc(S(=O)(=O)Oc2ccc(-c3ccc(-c4c(Cc5ccccc5)sc5ccccc45)cc3)cc2)cc1O
88.5 to 90	COC(=O)c1cc(OC)c(OC)c2c1C=CCO2
240 to 241	Cc1ccc(OC2COc3ccc(O)cc3C2O)cn1 (stereo not given)
219 to 220	COc1cc(C(C)C)ccc1C1(O)C(=O)c2cccc(N)c2C1=O (stereo not given)
185 to 190	NC(=O)c1c[nH]cc1-c1cccc(Cl)c1Cl
147 to 148	COc1cc(COc2nn(-c3ccccc3)cc2CC(=O)O)ccc1OCc1nc(-c2ccccc2)oc1C
133 to 135	O=C(NCCC1OCCO1)c1ccc[nH]1
54 to 55	CCCCCCCN(CC)C(=O)CCCc1ccc(NS(C)(=O)=O)cc1
40 to 42	Cc1cccc(OCC(=O)NCCO[N+](=O)[O-])c1
92 to 96	CSc1nnc(CNc2c(C)csc2C)n1C
109 to 110	CCOC(=O)Cc1nc(-c2ccc(Cl)cc2)oc1Sc1ccccc1
213 to 219	COc1cc2c(c3c1OC(C)(C)C3)C(c1cccc(NC(=O)c3cccnc3)c1)=NC(C)(C)C2
> 250	CS(=O)(=O)Nc1cc2occ(C(=O)Nc3nnn[nH]3)c(=O)c2cc1Oc1ccccc1

melting point [°C]	Compound
257 to 258	Oc1ncnc2c(F)ccc(F)c12
169 to 171	CC(O)c1cccc(Nc2ccccc2C(=O)O)c1Cl (stereo not given)
195 to 196	CC(=O)N1CCC(C(=O)Nc2ccccc2Oc2ccc(Cl)cc2)CC1
62 to 64	COCCOC(=O)CCc1cc(C(C)(C)C)c(O)c(C(C)(C)C)c1
108 to 110	CCOC(=O)C1CCC(=C(C#N)C(=O)c2ccc(Cl)cc2)N1 (stereo not given)
250 to 252	O=S(=O)(c1ccc(F)c(C(F)(F)F)c1)N1CCC(Nc2nc(Nc3cccc(C(F)(F)F)c3)nc(OCC(F)(F)F)n2)CC1
144 to 146	COc1ccc(/C=C/C(=O)/C=C/c2ccc(C(F)(F)F)cc2)cc1
240 to 242	C=C(Br)c1cc(O)cc2nc(-c3ccc(O)c(F)c3F)oc12
142 to 143	COc1ccc2cc(I)ccc2c1
144 to 145	O=[N+]([O-])c1cnc2ccc(-c3ccccc3)cc2c1Cl
240 to 243	O=C(Nc1ccccc1C(c1ccc(O)cc1)c1ccc(O)cc1)c1cccs1
225 to 227	CC(=O)Oc1ccc(CC(=O)Nc2ncc(-c3ccc(OC(C)=O)cc3)nc2Cc2ccccc2)cc1
124 to 126	CC(C)c1cccc(C(C)C)c1NC(=O)CC(=O)c1ccccc1
226	CCc1nc(Cl)nc(N)c1C#N
234 to 235	NC(=O)c1cc2ccccc2cc1N
134 to 136	O=Cc1cccc2c(Br)c3ccccc3cc12
172 to 173	Cn1cc2c(n1)-c1cnn(C)c1CC2(C)C
219 to 221	CC1(C)CCc2c(N3CCSCC3)nc3sc4c(NCCCN5CCCC5=O)ncnc4c3c2C1
187 to 189	O=C(O)c1ccc(C(=O)N[C@@H](Cc2c[nH]c3ccccc23)C(=O)O)cc1
165 to 168	CC(=O)n1cc(-c2ccccc2)c(-n2cnnc2)n1
128 to 130	c1ccc(-c2cc3n(n2)CCNC3CC2CCCCC2)cc1 (racemic)
254	CCCC(=O)NN(C(=O)C(=O)NN)C(=O)c1ccccc1

Compound	melting point [°C]
C=CCN1CCc2c([nH]c3ccccc23)C(C(=O)OC)C1 (stereo not given)	105 to 108
c1ccc2c(c1)c1ccccc1n2-c1ccc2c(c1)Oc1ccc(-n3c4ccccc4c4ccccc43)cc1O2	348
CN(C)C1(c2ccccc2)CCC(CNC(=O)N2CC=C(c3c[nH]c4ccccc34)CC2)CC1 (stereo not given)	112 to 115
O=C(CC(F)(F)F)CS(=O)(=O)C(c1ccc(Cl)cc1)c1ccc(Cl)cc1	48 to 50
O=C(O)C1CC2CC(CP(=O)(O)O)CCC2CN1 (stereo not given)	208 to 211
COc1cc(OC)c(CNCCc2ccc(O)cc2)cc1O	170 to 173
